Source: PubChem BioAssay (NCI)
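Assay format: 96-well plates, 48-hour exposure. The concentration for 50% growth inhibition is given as GI50. TGI marks complete inhibition of growth.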

Tests used:
Test in all cases: NCI-60 cell line screen, 48 h
CAKI-1 renal = system: CAKI-1 renal
MOLT-4 leukemia = system: MOLT-4 leukemia
HL-60(TB) leukemia = system: HL-60(TB) leukemia
M14 melanoma = system: M14 melanoma
OVCAR-4 ovarian = system: OVCAR-4 ovarian
NCI-H460 lung = system: NCI-H460 lung
A549 NSCLC = system: A549 NSCLC
RXF 393 renal = system: RXF 393 renal
KM12 colon = system: KM12 colon
NCI/ADR-RES ovarian = system: NCI/ADR-RES ovarian

Row | SMILES | TGI (CAKI-1 renal) [µM] | TGI (MOLT-4 leukemia) [µM] | TGI (HL-60(TB) leukemia) [µM] | TGI (M14 melanoma) [µM] | TGI (OVCAR-4 ovarian) [µM] | TGI (NCI-H460 lung) [µM] | TGI (A549 NSCLC) [µM] | TGI (RXF 393 renal) [µM] | TGI (KM12 colon) [µM] | TGI (NCI/ADR-RES ovarian) [µM] | GI50 (CAKI-1 renal) [µM] | GI50 (MOLT-4 leukemia) [µM] | GI50 (HL-60(TB) leukemia) [µM] | GI50 (M14 melanoma) [µM] | GI50 (OVCAR-4 ovarian) [µM] | GI50 (NCI-H460 lung) [µM] | GI50 (A549 NSCLC) [µM] | GI50 (NCI/ADR-RES ovarian) [µM] | GI50 (KM12 colon) [µM] | GI50 (RXF 393 renal) [µM]
1 | CN(C)CCNC(=O)c1cccc2cc3ccc4ccccc4c3nc12 | 2.14 | 0.0678 | 0.27 | 0.41 | 0.752 | 0.163 | 0.56 | 0.267 | 1.2 | – | – | – | – | – | – | – | – | – | – | –
2 | O=C(O)Cn1ccc(=O)c2c([N+](=O)[O-])cccc21 | > 100 | > 100 | > 100 | > 100 | – | > 100 | > 100 | – | > 100 | > 100 | – | – | – | – | – | – | – | – | – | –
3 | COC(=O)c1cc2ccccc2c2nc3ccccc3c(Cl)c12 | > 100 | > 100 | > 100 | > 100 | > 100 | – | > 100 | > 100 | > 100 | – | – | – | – | – | – | – | – | – | – | –
4 | OC1CSCCSCCCSCCSC1 | > 100 | > 100 | > 100 | > 100 | > 100 | > 100 | > 100 | > 100 | – | – | – | – | – | – | – | – | – | – | – | –
5 | CC1(C)OC2OC(COC(=O)C(c3ccccc3)c3ccccc3)C3OC(C)(C)OC3C2O1 (stereo unspecified) | > 100 | > 100 | 13.8 | > 100 | > 100 | > 100 | > 100 | > 100 | > 100 | – | > 100 | 3.76 | 2.99 | – | – | – | – | – | – | –
6 | O=c1[nH]c(=O)n(C2CC(O)C(O)C(CO)O2)cc1F (stereo unspecified) | – | > 100 | > 100 | > 100 | > 100 | > 100 | > 100 | > 100 | > 100 | – | – | – | – | – | – | – | – | – | – | –
7 | O=S(=O)(NCCCNc1nccc(-c2c(-c3cccc(F)c3)nc3occn23)n1)c1cccc2ccccc12 | > 100 | > 100 | 72.2 | > 100 | > 100 | > 100 | > 100 | – | > 100 | > 100 | 3.57 | 3.54 | 4.21 | 5.75 | 7.66 | 4.79 | 6.67 | 5.52 | 3.8 | –
8 | Nc1ncnc2c1ncn2CCOC(c1ccccc1)P(=O)(O)O (stereo unspecified) | > 100 | > 100 | > 100 | – | – | > 100 | > 100 | > 100 | > 100 | – | – | – | – | – | – | – | – | – | – | –
9 | CC(C)=CC(=O)CC(=O)C(=O)NCCNC(=O)C(=O)CC(=O)C=C(C)C | > 50 | – | – | > 50 | > 50 | > 50 | > 50 | > 50 | > 50 | – | – | – | – | – | – | – | – | – | – | –
10 | C1CCN2CC3CONC3C2C1 (stereo unspecified) | > 100 | > 100 | > 100 | > 100 | > 100 | > 100 | > 100 | > 100 | > 100 | – | – | – | – | – | – | – | – | – | – | –
11 | CC1(C)CC(O)CC(C)(C)N1.CC1(C)CC(O)CC(C)(C)N1.CC1(C)CC(O)CC(C)(C)N1.CC1(C)CC(O)CC(C)(C)N1.Cl.[Ti] | > 100 | > 100 | – | > 100 | > 100 | > 100 | – | > 100 | > 100 | – | > 100 | > 100 | – | > 100 | > 100 | > 100 | – | – | > 100 | > 100
12 | COc1ccc2nc(-c3ccc(O)cc3)ccc2c1 | – | > 100 | > 100 | > 100 | > 100 | > 100 | > 100 | > 100 | > 100 | – | – | – | – | – | – | – | – | – | – | –
13 | CN1CCOCCOCCOc2ccccc2NC(=O)c2nc(cnc2N)-c2ccc(cc2)S1(=O)=O | – | – | – | – | – | – | – | 21.9 | – | – | – | – | – | – | – | – | – | – | – | 1.59
14 | C1=C(c2ccccc2)C(OC2Oc3ccccc3C=C2c2ccccc2)Oc2ccccc21 (stereo unspecified) | > 100 | > 100 | > 100 | > 100 | – | > 100 | > 100 | > 100 | > 100 | – | – | – | – | – | – | – | – | – | – | –
15 | COc1cc2c3c(n(CCCN4CCSCC4)c(=O)c2cc1OC)-c1cc2c(cc1C3=O)OCO2 | > 100 | 13.4 | – | > 100 | > 100 | > 100 | > 100 | 67.8 | > 100 | > 100 | 21.1 | 0.632 | – | > 100 | > 100 | 49.7 | > 100 | > 100 | > 100 | 27.3
16 | C/C(CC(=O)Nc1cccc(Cl)c1C)=N\N=C(N)N | > 100 | > 100 | > 100 | > 100 | > 100 | > 100 | > 100 | > 100 | > 100 | – | – | – | – | – | – | – | – | – | – | –
17 | O=c1c2cccc3cccc(c4n1CCCN=4)c32 | > 100 | > 100 | > 100 | > 100 | > 100 | > 100 | > 100 | > 100 | > 100 | – | – | – | – | – | – | – | – | – | – | –
18 | Cc1cn2c(/C=C3/C(=O)Nc4ccc(C(=O)O)cc43)c(C)nc2s1 | > 100 | > 100 | > 100 | > 100 | > 100 | > 100 | > 100 | – | > 100 | > 100 | > 100 | > 100 | > 100 | > 100 | > 100 | > 100 | > 100 | > 100 | > 100 | –
19 | COc1cc(OC)c(/C=C/C(=O)c2c(N)cc(OC)cc2OC)c(OC)c1 | > 100 | > 100 | > 100 | > 100 | > 100 | > 51.2 | > 100 | 4.7 | 47.9 | – | 0.38 | 1.02 | 0.3 | 0.349 | 13.6 | 0.347 | 0.733 | – | 0.303 | 0.623
20 | Nc1c(C(=O)Nc2ccccc2O)[n+]([O-])c2ccccc2[n+]1[O-] | > 100 | > 100 | > 100 | > 100 | > 100 | > 100 | > 100 | – | > 100 | – | – | – | – | – | – | – | – | – | – | –
